These results are taken from ChEMBL document CHEMBL4811221, “Diosgenin Derivatives as Potential Antitumor Agents: Synthesis, Cytotoxicity, and Mechanism of Action” (J Nat Prod, 2021).

Assay [1] relates to HepG2. Description: Cell cycle arrest in human HepG2 cells assessed as accumulation at G2/M phase at 8 uM measured after 24 hrs by RNaseA/propidium iodide staining based flow cytometry (reference value: 22.9 %). The assay is classed as functional.
For assay [2], the system named is HepG2. The assay is described as follows: Induction of apoptosis in human HepG2 cells assessed as formation of apoptotic bodies at 4 to 8 uM by fluorescent microscopic analysis. To be noted: dose 4-8 µM. The format is functional, cell-based.
Assay [3] relates to HepG2. Description: Cell cycle arrest in human HepG2 cells assessed as accumulation at G0/G1 phase at 4 uM measured after 24 hrs by RNaseA/propidium iodide staining based flow cytometry (reference value: 49.3 %). The format is functional.
Assay [4] relates to HepG2. The assay is described as follows: Cell cycle arrest in human HepG2 cells assessed as accumulation at G0/G1 phase at 8 uM measured after 24 hrs by RNaseA/propidium iodide staining based flow cytometry (reference value: 49.3 %). The format is functional. (In flow cytometry, cells or beads pass a laser one at a time.)
The subject of assay [5] is HepG2. Description: Induction of apoptosis in human HepG2 cells assessed as late apoptotic cells at 4 uM measured after 24 hrs by annexinV-FITC/propidium iodide staining based flow cytometry (reference value: 5.45 %). The assay is classed as functional.
In assay [6] the test system is HepG2. Description: Induction of apoptosis in human HepG2 cells assessed as necrotic cells at 4 uM measured after 24 hrs by annexinV-FITC/propidium iodide staining based flow cytometry (reference value: 0.77 %). The format is functional.
In assay [7] the test system is HepG2. Description: Induction of apoptosis in human HepG2 cells assessed as necrotic cells at 8 uM measured after 24 hrs by annexinV-FITC/propidium iodide staining based flow cytometry (reference value: 0.77 %). The format is functional.
Assay [8] deals with HepG2. Description: Induction of apoptosis in human HepG2 cells assessed as live cells at 4 uM measured after 24 hrs by annexinV-FITC/propidium iodide staining based flow cytometry (reference value: 91.7 %). The assay is classed as functional.
The test system of assay [9] is L02. The assay is described as follows: Cytotoxicity against human L02 cells assessed as cell growth inhibition measured after 24 hrs by MTT assay. To be noted: L02, 24 h. The format is cell-based.
For assay [10], the system named is HepG2. Description: Induction of apoptosis in human HepG2 cells assessed as live cells at 8 uM measured after 24 hrs by annexinV-FITC/propidium iodide staining based flow cytometry (reference value: 91.7 %). The format is functional.
Assay [11] concerns HepG2. The assay is described as follows: Induction of apoptosis in human HepG2 cells assessed as early apoptotic cells at 4 uM measured after 24 hrs by annexinV-FITC/propidium iodide staining based flow cytometry (reference value: 2.03 %). The format is functional.
The test system of assay [12] is HepG2. Description: Cell cycle arrest in human HepG2 cells assessed as accumulation at G2/M phase at 4 uM measured after 24 hrs by RNaseA/propidium iodide staining based flow cytometry (reference value: 22.9 %). The assay is classed as functional.
In assay [13] the test system is A549. The assay is described as follows: Cytotoxicity against human A549 cells assessed as cell growth inhibition measured after 24 hrs by MTT assay. The assay is classed as functional, cell-based. The note with it: A549, 24 h. (Formazan colour is commonly taken as a measure of viable cells.)
Assay [14] deals with MCF7. The assay is described as follows: Cytotoxicity against human MCF7 cells assessed as cell growth inhibition measured after 24 hrs by MTT assay. The assay is classed as functional, cell-based. The note with it: MCF7, 24 h.
In assay [15] the test system is HepG2. The assay is described as follows: Induction of apoptosis in human HepG2 cells assessed as early apoptotic cells at 8 uM measured after 24 hrs by annexinV-FITC/propidium iodide staining based flow cytometry (reference value: 2.03 %). The format is functional.
Assay [16] deals with HepG2. The assay is described as follows: Induction of apoptosis in human HepG2 cells assessed as membrane blebbing at 4 to 8 uM by fluorescent microscopic analysis. The format is functional, cell-based. The note with it: dose 4-8 µM.
Assay [17] deals with HepG2. The assay is described as follows: Induction of apoptosis in human HepG2 cells assessed as discernible cell rounding at 4 to 8 uM by fluorescent microscopic analysis. The assay is classed as functional, cell-based. To be noted: dose 4-8 µM.
Assay [18] concerns HepG2. The assay is described as follows: Induction of apoptosis in human HepG2 cells assessed as late apoptotic cells at 8 uM measured after 24 hrs by annexinV-FITC/propidium iodide staining based flow cytometry (reference value: 5.45 %). The format is functional.
Assay [19] deals with HepG2. The assay is described as follows: Cell cycle arrest in human HepG2 cells assessed as accumulation at S phase at 4 uM measured after 24 hrs by RNaseA/propidium iodide staining based flow cytometry (reference value: 24.3 %). The assay is classed as functional.
In assay [20] the test system is HepG2. The assay is described as follows: Cytotoxicity against human HepG2 cells assessed as cell growth inhibition measured after 24 hrs by MTT assay. The note with it: HepG2, 24 h. The format is functional, cell-based.
Assay [21] concerns HepG2. Description: Induction of apoptosis in human HepG2 cells assessed as cell shrinkage at 4 to 8 uM by fluorescent microscopic analysis. The assay is classed as functional, cell-based. The note with it: dose 4-8 µM.
Assay [22] concerns HepG2. The assay is described as follows: Cell cycle arrest in human HepG2 cells assessed as accumulation at S phase at 8 uM measured after 24 hrs by RNaseA/propidium iodide staining based flow cytometry (reference value: 24.3 %). The assay is classed as functional.

Active and inactive are the calls of the source. The rule behind the calls is not given here.

Turning to `C[C@@H]1CC[C@@]2(OC1)O[C@H]1C[C@H]3[C@@H]4CC=C5C[C@@H](OC(=O)CCC(=O)N6CCNCC6)CC[C@]5(C)[C@H]4CC[C@]3(C)[C@H]1[C@@H]2C`, the Activity in assay [1] is on record as 17.3%; in assay [3] it was 57.4%; in assay [4], 64.2%; in assay [5], 5.12%; in assay [6], 0.093%; in assay [7], 0.18%. Further, the Activity is 88.7% in assay [8]; 78.7% in assay [10]; 6.08% in [11]; 18.6% in assay [12]; 13.2% in assay [15]; 7.85% in assay [18]. Also, the Activity in [19] turned out to be 21.5%; in [22], 17.5%. Moreover, the result in assay [2], in assay [16], in assay [17] and in assay [21] was Active. Besides, the IC50 in assay [9] turned out to be 18600 nM; in [13], 2400 nM; in assay [14], 2800 nM; in assay [20] it was 1900 nM.

As usually defined, the IC50 is the concentration needed to halve the response being measured.
